Test results taken from patent US10774049B2, “PU.1 inhibitors” (Albert Einstein College of Medicine, priority 2016, dated 2020).
Where a name gives a salt, the structure may show the parent alone.

Assays:
λB promoter DNA sequence = test: SPR binding of compounds to immobilized λB promoter DNA; parameters: species or system murine; settings: biosensor-SPR, 1:1 complex
Description: FIG. 8A-8C depicts (A) DB2313 synthesis (B-C) Representative SPR sensorgrams for compounds binding to the immobilized λB promoter DNA sequence: (B) DB2313 (KD=7±2 nM) and (C) DB1976 (KD=5±2 nM) as previously described (Munde et al., 2014). The solid black lines are best fit values for global kinetic fitting of the results with a single binding site function. Similar experiments with DB2115 gave a KD=1±2 nM. The plots are for the SPR signal (RU) versus time from injection of the compound over the sensorchip. From 0 to 180 seconds, compound is being injected (association) and after that only buffer flows over the chip. (B) From top to bottom: 10, 30, 40 nM. (C) From top to bottom: 5, 10, 15 nM.
To test whether these heterocyclic diamidines targeted cognate DNA binding sites for PU.1, we assessed binding to the λB motif by biosensor-surface plasmon resonance (SPR). Duplex DNA harboring the λB motif was immobilized on a streptavidin functionalized sensor chip with a dextran surface as described. The DNA was 5′-end labeled with biotin and captured on the sensor chip. Based on the known strong AT selectivity of these heterocyclic diamidines, they are expected to bind to the AT rich λB promoter sequence at the 5′ side of the 5′-GGAA-3′ PU.1 conserved recognition sequence. Sensorgrams obtained from the compounds-DNA association and disassociation reactions were used to determine equilibrium dissociation constants. The KD values indicate strong binding by all three compounds to form a 1:1 complex, and a binding K^D of 1±2 nM for DB2115 and 4-7 nM for DB1976 and DB2313 with the λB promoter.

[1] = test system: PU.1 occupancy on E2f1, Junb and Csf1r promoters; test: Chromatin immunoprecipitation of PU.1 on target promoters in AML cells; format: cell-based; settings: ChIP
Description: FIG. 3A-3G. Novel inhibitors show on-target PU.1 inhibitory activity. (A) Quantitative RT-PCR analysis of Csf1r, Junb, Sfpi1, E2f1 expression after 72 h (n=6) and, for Csf1r, after 1 h (n=3), 4 h (n=7), 8 h (n=3) and 24 h (n=3) of treatment with the small molecules in URE−/− cells, expression is normalized to GAPDH expression. Data represent means±SD of technical triplicate from one representative experiment; fold change compared to Vehicle is shown. (B) Chromatin immunoprecipitation assay showing PU.1 occupancy on E2f1, Junb, Csf1r promoters after treatment in Umsh cell line (n=5). 10·10^6 cells were collected for each condition after 8 h treatment with a double dose of the small molecules (50 uM for DB1976, 1.4 uM for DB2115 and 660 nM for DB2313) or Vehicle; and processed for ChIP using PU.1 monoclonal antibody. Myogenin was used as a negative control, not regulated by PU.1. Data represent means±SD of technical triplicate from one representative experiment. (C) Cell viability after PU.1 rescue in MOLM13 cells. MOLM13 were transduced with a lentiviral construct expressing either PU.1-GFP (PU.1, black bar) or GFP as a control (empty, white bar), sorted on GFP and plated with DB1976 (n=7), DB2115 (n=8), DB2313 (n=6) or Vehicle. Cell count was performed after 4 days. Data represent means±SD of technical triplicate from one representative experiment; fold change compared to Vehicle is shown. (D-G) Transcriptome analysis of URE−/− cells after 24 h of treatment with DB2313 versus vehicle (n=3). Differentially expressed genes were determined with a fold change at 1.2 and a P value <0.1. […] Deregulated gens in PUER cells were analyzed with a FC at 1.5 and P-value <0.05. […] P-value was calculated using the hypergeometric test. […]
To assess on-target activity of our inhibitors in AML cells, we measured transcript levels of well-known PU.1 targets in PU.1 URE^−/− AML cells. […] As Csf1r is one of the most sensitive PU.1 targets in myeloid cells, we assessed its expression at different time points (1 h, 4 h, 8 h and 24 h) after drug treatment. […]

SMILES	Kd (λB promoter DNA sequence) [nM]	PU.1 occupancy on E2f1, Junb and Csf1r promoters [1]
N=C(N)c1ccc2nc(-c3ccc(-c4nc5ccc(C(=N)N)cc5[nH]4)[se]3)[nH]c2c1 [DB1976]	5 ± 2	decreased
N=C(N)c1ccc2nc(-c3ccc(OCCCCOc4ccc(-c5nc6ccc(C(=N)N)cc6[nH]5)cc4)cc3)[nH]c2c1 [DB2115]	1 ± 2	decreased
CC(C)NC(=N)c1ccc2nc(-c3ccc(OCc4cccc(COc5ccc(-c6nc7ccc(C(=N)NC(C)C)cc7[nH]6)cc5)c4F)cc3)[nH]c2c1 [DB2313, 3-Bis{4[4(5)-N-isopropylamidinobenzimidazolyl]phenoxymethyl]}-2-fluorobenzene tetrahydrochloride]	7 ± 2	decreased
